US9492471B2, “Methods of treating a disease or disorder associated with Bruton'S Tyrosine Kinase” (Celgene Avilomics Research, Inc., priority 2013, dated 2016)
Where two headings read alike, the source gives them in different places.

Assays:
Assay in all cases: HotSpot kinase profiling
Type in all cases: biochemical
PAK4 = target: T1, PAK4 (Homo sapiens, UniProt O96013)
T1 construct: purchased Reaction Biology Corp
Procedure, shortened: (§1)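 Percent inhibition, averaged when run more than once and referenced to a DMSO negative control, came from a radioactive filter-binding readout on P81 paper. Reactions of kinase with freshly made substrate and cofactors ran for 2 h at room temperature.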

MEK1 = target: T2, MEK1 (Homo sapiens, UniProt Q02750)
T2 construct: purchased Reaction Biology Corp
T2 sequence (Q02750 whole entry): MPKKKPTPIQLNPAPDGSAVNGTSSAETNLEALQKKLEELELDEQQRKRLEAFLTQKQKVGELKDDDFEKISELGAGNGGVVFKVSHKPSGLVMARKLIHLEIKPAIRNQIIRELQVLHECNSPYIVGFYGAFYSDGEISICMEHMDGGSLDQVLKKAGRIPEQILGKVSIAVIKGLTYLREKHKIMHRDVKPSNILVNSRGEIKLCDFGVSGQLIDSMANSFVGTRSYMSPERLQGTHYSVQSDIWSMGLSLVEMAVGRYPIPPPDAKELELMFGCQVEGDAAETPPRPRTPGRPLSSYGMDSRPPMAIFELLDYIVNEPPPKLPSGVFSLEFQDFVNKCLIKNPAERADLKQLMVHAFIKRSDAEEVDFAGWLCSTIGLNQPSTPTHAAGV
Procedure, shortened: as §1

IRAK1 = target: T3, IRAK1 (Homo sapiens, UniProt P51617)
T3 construct: purchased Reaction Biology Corp
T3 sequence (P51617 whole entry): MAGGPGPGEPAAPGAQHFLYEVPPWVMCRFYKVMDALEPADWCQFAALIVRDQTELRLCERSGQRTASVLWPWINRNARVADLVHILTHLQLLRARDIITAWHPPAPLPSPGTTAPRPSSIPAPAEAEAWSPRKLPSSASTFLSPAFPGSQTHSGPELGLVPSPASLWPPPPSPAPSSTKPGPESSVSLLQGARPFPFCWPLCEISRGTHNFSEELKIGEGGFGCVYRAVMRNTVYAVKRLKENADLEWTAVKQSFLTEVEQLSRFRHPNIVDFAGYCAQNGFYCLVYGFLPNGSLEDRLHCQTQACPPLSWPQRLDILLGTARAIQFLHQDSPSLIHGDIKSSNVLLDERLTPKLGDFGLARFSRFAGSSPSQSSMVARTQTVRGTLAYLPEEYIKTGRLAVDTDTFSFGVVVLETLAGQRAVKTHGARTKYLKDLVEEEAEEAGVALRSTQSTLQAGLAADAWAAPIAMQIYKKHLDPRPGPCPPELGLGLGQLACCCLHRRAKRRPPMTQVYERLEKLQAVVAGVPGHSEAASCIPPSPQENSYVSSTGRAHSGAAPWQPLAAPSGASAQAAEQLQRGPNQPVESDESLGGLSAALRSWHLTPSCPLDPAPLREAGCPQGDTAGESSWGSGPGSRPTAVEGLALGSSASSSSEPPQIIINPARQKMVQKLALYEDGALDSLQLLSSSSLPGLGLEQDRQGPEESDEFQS
Procedure, shortened: as §1

DRAK1/STK17A = target: T4, DRAK1/STK17A (Homo sapiens, UniProt Q9UEE5)
T4 construct: purchased Reaction Biology Corp
T4 sequence (Q9UEE5 1-414): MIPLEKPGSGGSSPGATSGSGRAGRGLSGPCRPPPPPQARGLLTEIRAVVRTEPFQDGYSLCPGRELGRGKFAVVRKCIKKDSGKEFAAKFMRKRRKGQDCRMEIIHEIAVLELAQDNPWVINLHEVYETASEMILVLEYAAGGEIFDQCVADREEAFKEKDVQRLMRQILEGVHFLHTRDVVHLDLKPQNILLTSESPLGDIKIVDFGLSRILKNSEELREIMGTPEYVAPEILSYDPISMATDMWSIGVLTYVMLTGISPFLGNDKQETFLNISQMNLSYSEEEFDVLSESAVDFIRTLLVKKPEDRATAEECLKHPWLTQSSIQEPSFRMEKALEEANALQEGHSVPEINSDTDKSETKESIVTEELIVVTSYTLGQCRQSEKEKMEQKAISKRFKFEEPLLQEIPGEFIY
Procedure, shortened: as §1

PRKX = target: T5, PRKX (Homo sapiens, UniProt P51817)
T5 construct: purchased Reaction Biology Corp
T5 sequence (P51817 1-358): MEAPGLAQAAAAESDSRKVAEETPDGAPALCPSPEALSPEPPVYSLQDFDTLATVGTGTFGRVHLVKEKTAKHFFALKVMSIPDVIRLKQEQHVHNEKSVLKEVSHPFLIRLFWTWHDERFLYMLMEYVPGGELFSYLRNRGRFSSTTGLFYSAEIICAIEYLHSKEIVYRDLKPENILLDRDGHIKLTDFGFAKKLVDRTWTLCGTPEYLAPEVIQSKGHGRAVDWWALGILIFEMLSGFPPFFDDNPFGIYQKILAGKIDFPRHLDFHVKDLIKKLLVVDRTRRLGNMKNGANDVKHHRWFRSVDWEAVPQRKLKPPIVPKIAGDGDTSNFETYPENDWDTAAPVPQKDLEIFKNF
Procedure, shortened: as §1

TLK2 = target: T6, TLK2 (Homo sapiens, UniProt Q86UE8)
T6 construct: purchased Reaction Biology Corp
T6 sequence (Q86UE8 whole entry): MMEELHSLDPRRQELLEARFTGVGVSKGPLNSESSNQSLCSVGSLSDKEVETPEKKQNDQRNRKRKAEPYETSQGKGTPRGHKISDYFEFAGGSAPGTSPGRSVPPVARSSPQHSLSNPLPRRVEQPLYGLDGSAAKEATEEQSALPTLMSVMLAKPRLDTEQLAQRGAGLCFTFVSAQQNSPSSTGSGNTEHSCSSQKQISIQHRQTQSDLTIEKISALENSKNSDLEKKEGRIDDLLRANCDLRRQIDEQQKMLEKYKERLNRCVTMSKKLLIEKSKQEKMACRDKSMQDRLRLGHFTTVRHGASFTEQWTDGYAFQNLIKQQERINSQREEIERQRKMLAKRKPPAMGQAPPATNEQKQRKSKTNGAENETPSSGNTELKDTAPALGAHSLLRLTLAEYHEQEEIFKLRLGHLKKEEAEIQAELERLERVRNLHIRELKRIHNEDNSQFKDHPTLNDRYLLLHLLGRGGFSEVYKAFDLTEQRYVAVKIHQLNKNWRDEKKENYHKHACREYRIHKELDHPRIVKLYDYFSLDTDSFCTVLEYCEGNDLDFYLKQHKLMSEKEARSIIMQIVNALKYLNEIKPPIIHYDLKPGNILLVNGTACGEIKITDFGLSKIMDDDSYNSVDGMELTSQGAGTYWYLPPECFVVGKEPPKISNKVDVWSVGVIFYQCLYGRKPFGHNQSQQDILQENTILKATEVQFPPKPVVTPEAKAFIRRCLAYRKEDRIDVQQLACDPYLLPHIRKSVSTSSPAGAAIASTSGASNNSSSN
Procedure, shortened: as §1

CDK5/p35 = target: T7, CDK5/p35 (Homo sapiens, UniProt Q00535)
T7 construct: purchased Reaction Biology Corp
T7 sequence (Q00535 whole entry): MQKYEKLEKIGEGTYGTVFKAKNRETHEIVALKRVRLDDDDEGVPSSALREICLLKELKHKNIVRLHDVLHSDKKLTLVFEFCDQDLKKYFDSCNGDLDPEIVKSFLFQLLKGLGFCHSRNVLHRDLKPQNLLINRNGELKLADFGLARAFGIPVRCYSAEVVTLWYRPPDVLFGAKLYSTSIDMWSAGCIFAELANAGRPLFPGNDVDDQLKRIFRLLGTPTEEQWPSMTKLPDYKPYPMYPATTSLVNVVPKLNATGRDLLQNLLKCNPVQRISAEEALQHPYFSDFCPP
T7 sequence (Q15078 2-307 partner limits assumed): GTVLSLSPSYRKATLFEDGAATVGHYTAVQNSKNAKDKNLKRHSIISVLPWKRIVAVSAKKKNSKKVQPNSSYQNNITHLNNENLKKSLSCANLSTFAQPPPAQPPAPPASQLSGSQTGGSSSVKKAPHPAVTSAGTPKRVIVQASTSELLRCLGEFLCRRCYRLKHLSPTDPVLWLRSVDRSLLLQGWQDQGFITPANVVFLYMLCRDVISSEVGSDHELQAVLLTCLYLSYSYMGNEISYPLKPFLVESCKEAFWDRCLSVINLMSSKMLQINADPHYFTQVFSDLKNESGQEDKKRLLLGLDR
Procedure, shortened: as §1

LCK2/ICK = target: T8, LCK2/ICK (Homo sapiens, UniProt Q9UPZ9)
T8 construct: purchased Reaction Biology Corp
T8 sequence (Q9UPZ9 1-632): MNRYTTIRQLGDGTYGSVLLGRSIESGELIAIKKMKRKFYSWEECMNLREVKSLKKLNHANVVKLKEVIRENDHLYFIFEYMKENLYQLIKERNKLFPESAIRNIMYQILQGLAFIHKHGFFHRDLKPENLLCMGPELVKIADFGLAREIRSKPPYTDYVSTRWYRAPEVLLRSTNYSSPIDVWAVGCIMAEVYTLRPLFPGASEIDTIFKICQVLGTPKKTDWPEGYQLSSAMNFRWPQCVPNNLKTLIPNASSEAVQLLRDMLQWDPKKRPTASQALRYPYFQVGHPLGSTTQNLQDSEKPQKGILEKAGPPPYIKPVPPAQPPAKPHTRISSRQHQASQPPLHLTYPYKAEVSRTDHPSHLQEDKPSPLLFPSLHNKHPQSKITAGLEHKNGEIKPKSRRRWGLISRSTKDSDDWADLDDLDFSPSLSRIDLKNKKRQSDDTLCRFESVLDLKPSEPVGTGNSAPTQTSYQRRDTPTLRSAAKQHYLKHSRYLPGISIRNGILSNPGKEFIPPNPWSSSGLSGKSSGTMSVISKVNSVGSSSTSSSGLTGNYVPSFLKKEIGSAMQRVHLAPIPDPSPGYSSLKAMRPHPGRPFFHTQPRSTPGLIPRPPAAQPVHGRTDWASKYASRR
Procedure, shortened: as §1

[1] = read-out: % Enzyme Activity (relative to DMSO controls) Run 1
[2] = read-out: % Enzyme Activity (relative to DMSO controls) Run 2

T1 sequence (O96013 whole entry): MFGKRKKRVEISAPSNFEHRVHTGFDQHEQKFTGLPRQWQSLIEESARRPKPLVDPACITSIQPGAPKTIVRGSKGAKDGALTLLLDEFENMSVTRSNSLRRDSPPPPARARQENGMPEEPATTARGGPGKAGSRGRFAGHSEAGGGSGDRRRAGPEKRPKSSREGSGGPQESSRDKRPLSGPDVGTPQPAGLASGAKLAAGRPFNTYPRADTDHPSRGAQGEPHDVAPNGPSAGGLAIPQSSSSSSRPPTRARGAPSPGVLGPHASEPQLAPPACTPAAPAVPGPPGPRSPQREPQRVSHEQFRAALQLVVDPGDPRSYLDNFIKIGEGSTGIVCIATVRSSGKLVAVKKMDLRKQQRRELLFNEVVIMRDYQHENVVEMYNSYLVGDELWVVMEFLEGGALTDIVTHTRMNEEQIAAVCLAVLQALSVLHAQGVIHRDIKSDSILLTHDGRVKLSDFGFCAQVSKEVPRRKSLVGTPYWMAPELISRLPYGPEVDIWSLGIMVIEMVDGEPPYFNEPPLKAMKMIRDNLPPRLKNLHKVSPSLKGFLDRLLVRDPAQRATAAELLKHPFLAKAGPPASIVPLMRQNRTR

With `C=CC(=O)Nc1cccc(Nc2nc(Nc3ccc(OCCOC)c(F)c3)ncc2F)c1` [Compound 2] the inhibition at 3 µM (PAK4) was 2.45%, the remaining activity at 3 µM (PAK4; [1]) was 98.7% and the remaining activity at 3 µM (PAK4; [2]) was 96.4%. It also gave an inhibition at 3 µM (MEK1) of -10.3%, a remaining activity at 3 µM (MEK1; [1]) of 109% and a remaining activity at 3 µM (MEK1; [2]) of 112%. For the same compound, the inhibition at 3 µM (IRAK1) was 24.6%, the remaining activity at 3 µM (IRAK1; [1]) was 76.5% and the remaining activity at 3 µM (IRAK1; [2]) was 74.4%. For the same compound, the inhibition at 3 µM (DRAK1/STK17A) was 18.2%, the remaining activity at 3 µM (DRAK1/STK17A; [1]) was 82.9% and the remaining activity at 3 µM (DRAK1/STK17A; [2]) was 80.6%. For the same compound, the inhibition at 3 µM (PRKX) was 1.8%, the remaining activity at 3 µM (PRKX; [1]) was 97.9% and the remaining activity at 3 µM (PRKX; [2]) was 98.5%. It also gave an inhibition at 3 µM (TLK2) of -6.32%, a remaining activity at 3 µM (TLK2; [1]) of 108% and a remaining activity at 3 µM (TLK2; [2]) of 105%. It also gave an inhibition at 3 µM (CDK5/p35) of 4.49%, a remaining activity at 3 µM (CDK5/p35; [1]) of 95% and a remaining activity at 3 µM (CDK5/p35; [2]) of 96.1%. For the same compound, the inhibition at 3 µM (LCK2/ICK) was 1.98%, the remaining activity at 3 µM (LCK2/ICK; [1]) was 101% and the remaining activity at 3 µM (LCK2/ICK; [2]) was 95.1%.
